Experimental data published in ChEMBL document CHEMBL2311352, “Discovery of 4-phenyl-2-phenylaminopyridine based TNIK inhibitors” (Bioorg Med Chem Lett, 2013).

Legend:
[1] = target: Ephrin type-A receptor 1 (Homo sapiens) (UniProt P21709); test: Inhibition of EPHA1 (unknown origin) at 1 uM
[2] = target: Protein-tyrosine kinase 2-beta (Homo sapiens) (UniProt Q14289); test: Inhibition of PYK2 (unknown origin) at 1 uM
[3] = target: Dual specificity mitogen-activated protein kinase kinase 1 (Homo sapiens) (UniProt Q02750); test: Inhibition of MEK1 (unknown origin) at 1 uM
[4] = target: Cyclin-dependent kinase 4/cyclin D1 (Homo sapiens) (UniProt P11802+P24385); test: Inhibition of CDK4/cyclin D1 (unknown origin) at 1 uM; type: protein-complex assay
[5] = target: Ephrin type-A receptor 7 (Homo sapiens) (UniProt Q15375); test: Inhibition of EPHA7 (unknown origin) at 1 uM
[6] = target: TRAF2 and NCK-interacting protein kinase (Homo sapiens, UniProt Q9UKE5); test: Inhibition of TNIK-mediated TCF4/[…] transcription in human HCT116 cells by beta-lactamase reporter gene assay; type: cell-based, HCT-116
Caco-2 = test: Ratio of apparent permeability across basolateral to apical side over apical to basolateral side in human Caco2 cells; type: ADME, cell-based
[7] = target: Serine/threonine-protein kinase Chk2 (Homo sapiens) (UniProt O96017); test: Inhibition of CHK2 (unknown origin) at 1 uM
[8] = target: Serine/threonine-protein kinase 26 (Homo sapiens) (UniProt Q9P289); test: Inhibition of MST4 (unknown origin) at 1 uM
[9] = target: Tyrosine-protein kinase SYK (Homo sapiens) (UniProt P43405); test: Inhibition of SYK (unknown origin) at 1 uM
[10] = target: Aurora kinase C (Homo sapiens) (UniProt Q9UQB9); test: Inhibition of aurora C (unknown origin) at 1 uM
[11] = target: Vascular endothelial growth factor receptor 2 (Homo sapiens) (UniProt P35968); test: Inhibition of VEGFR2 (unknown origin) at 1 uM
[12] = target: Homeodomain-interacting protein kinase 1 (Homo sapiens) (UniProt Q86Z02); test: Inhibition of HIPK1 (unknown origin) at 1 uM
[13] = target: Cyclin-dependent kinase 1/cyclin B1 (Homo sapiens) (UniProt P06493+P14635); test: Inhibition of CDK1/cyclin B (unknown origin) at 1 uM; type: protein-complex assay
[14] = target: Platelet-derived growth factor receptor beta (Homo sapiens) (UniProt P09619); test: Inhibition of PDGFRbeta (unknown origin) at 1 uM
[15] = target: Tyrosine-protein kinase ABL1 (Homo sapiens) (UniProt P00519); test: Inhibition of ABL1 (unknown origin) at 1 uM
[16] = target: Tyrosine-protein kinase JAK1 (Homo sapiens) (UniProt P23458); test: Inhibition of JAK1 (unknown origin) at 1 uM
[17] = target: Tyrosine-protein kinase Fes/Fps (Homo sapiens) (UniProt P07332); test: Inhibition of FES (unknown origin) at 1 uM
[18] = target: Ribosomal protein S6 kinase beta-1 (Homo sapiens) (UniProt P23443); test: Inhibition of p70S6K (unknown origin) at 1 uM
[19] = target: Tyrosine-protein kinase Fer (Homo sapiens) (UniProt P16591); test: Inhibition of FER (unknown origin) at 1 uM
[20] = target: Muscle, skeletal receptor tyrosine-protein kinase (Homo sapiens) (UniProt O15146); test: Inhibition of MUSK (unknown origin) at 1 uM
[21] = Apparent permeability across apical to basolateral side in human Caco2 cells; type: ADME, cell-based; conditions: Caco-2
[22] = target: Protein kinase C theta type (Homo sapiens) (UniProt Q04759); test: Inhibition of PKCtheta (unknown origin) at 1 uM
[23] = target: Tyrosine-protein kinase receptor UFO (Homo sapiens) (UniProt P30530); test: Inhibition of AXL (unknown origin) at 1 uM
[24] = target: Fibroblast growth factor receptor 2 (Homo sapiens) (UniProt P21802); test: Inhibition of FGFR2 (unknown origin) at 1 uM
[25] = target: Tyrosine-protein kinase Yes (Homo sapiens) (UniProt P07947); test: Inhibition of YES (unknown origin) at 1 uM
[26] = target: Tyrosine-protein kinase Lck (Homo sapiens) (UniProt P06239); test: Inhibition of LCK (unknown origin) at 1 uM
[27] = target: Protein kinase C delta type (Homo sapiens) (UniProt Q05655); test: Inhibition of PKCdelta (unknown origin) at 1 uM
[28] = target: Proto-oncogene tyrosine-protein kinase Src (Homo sapiens) (UniProt P12931); test: Inhibition of c-SRC (unknown origin) at 1 uM
[29] = target: Proto-oncogene tyrosine-protein kinase ROS (Homo sapiens) (UniProt P08922); test: Inhibition of ROS (unknown origin) at 1 uM
[30] = target: Cyclin-dependent kinase 2/cyclin A (Homo sapiens) (UniProt P24941+P20248+P78396); test: Inhibition of CDK2/cyclin A (unknown origin) at 1 uM; type: protein-complex assay
[31] = target: Casein kinase II subunit alpha (Homo sapiens) (UniProt P68400); test: Inhibition of CK2alpha (unknown origin) at 1 uM
[32] = target: Vascular endothelial growth factor receptor 1 (Homo sapiens) (UniProt P17948); test: Inhibition of VEGFR1 (unknown origin) at 1 uM
[33] = target: Vascular endothelial growth factor receptor 3 (Homo sapiens) (UniProt P35916); test: Inhibition of VEGFR3 (unknown origin) at 1 uM
[34] = target: Focal adhesion kinase 1 (Homo sapiens) (UniProt Q05397); test: Inhibition of FAK (unknown origin) at 1 uM
[35] = target: Ephrin type-B receptor 1 (Homo sapiens) (UniProt P54762); test: Inhibition of EPHB1 (unknown origin) at 1 uM
[36] = target: Proto-oncogene tyrosine-protein kinase receptor Ret (Homo sapiens) (UniProt P07949); test: Inhibition of RET (unknown origin) at 1 uM
[37] = target: CDK9/cyclin T1 (Homo sapiens) (UniProt O60563+P50750); test: Inhibition of CDK9/cyclin T1 (unknown origin) at 1 uM; type: protein-complex assay
[38] = target: Homeodomain-interacting protein kinase 3 (Homo sapiens) (UniProt Q9H422); test: Inhibition of HIPK3 (unknown origin) at 1 uM
[39] = target: Tyrosine-protein kinase HCK (Homo sapiens) (UniProt P08631); test: Inhibition of HCK (unknown origin) at 1 uM
[40] = target: Platelet-derived growth factor receptor alpha (Homo sapiens) (UniProt P16234); test: Inhibition of PDGFRalpha (unknown origin) at 1 uM
[41] = target: CDK6/cyclin D1 (Homo sapiens) (UniProt P24385+Q00534); test: Inhibition of CDK6/Cyclin D1 (unknown origin) at 1 uM; type: protein-complex assay
[42] = target: Dual specificity mitogen-activated protein kinase kinase 2 (Homo sapiens) (UniProt P36507); test: Inhibition of MEK2 (unknown origin) at 1 uM
[43] = target: Aurora kinase B (Homo sapiens) (UniProt Q96GD4); test: Inhibition of aurora B (unknown origin) at 1 uM

Chain of Tyrosine-protein kinase JAK1 (Homo sapiens) (P23458 whole entry): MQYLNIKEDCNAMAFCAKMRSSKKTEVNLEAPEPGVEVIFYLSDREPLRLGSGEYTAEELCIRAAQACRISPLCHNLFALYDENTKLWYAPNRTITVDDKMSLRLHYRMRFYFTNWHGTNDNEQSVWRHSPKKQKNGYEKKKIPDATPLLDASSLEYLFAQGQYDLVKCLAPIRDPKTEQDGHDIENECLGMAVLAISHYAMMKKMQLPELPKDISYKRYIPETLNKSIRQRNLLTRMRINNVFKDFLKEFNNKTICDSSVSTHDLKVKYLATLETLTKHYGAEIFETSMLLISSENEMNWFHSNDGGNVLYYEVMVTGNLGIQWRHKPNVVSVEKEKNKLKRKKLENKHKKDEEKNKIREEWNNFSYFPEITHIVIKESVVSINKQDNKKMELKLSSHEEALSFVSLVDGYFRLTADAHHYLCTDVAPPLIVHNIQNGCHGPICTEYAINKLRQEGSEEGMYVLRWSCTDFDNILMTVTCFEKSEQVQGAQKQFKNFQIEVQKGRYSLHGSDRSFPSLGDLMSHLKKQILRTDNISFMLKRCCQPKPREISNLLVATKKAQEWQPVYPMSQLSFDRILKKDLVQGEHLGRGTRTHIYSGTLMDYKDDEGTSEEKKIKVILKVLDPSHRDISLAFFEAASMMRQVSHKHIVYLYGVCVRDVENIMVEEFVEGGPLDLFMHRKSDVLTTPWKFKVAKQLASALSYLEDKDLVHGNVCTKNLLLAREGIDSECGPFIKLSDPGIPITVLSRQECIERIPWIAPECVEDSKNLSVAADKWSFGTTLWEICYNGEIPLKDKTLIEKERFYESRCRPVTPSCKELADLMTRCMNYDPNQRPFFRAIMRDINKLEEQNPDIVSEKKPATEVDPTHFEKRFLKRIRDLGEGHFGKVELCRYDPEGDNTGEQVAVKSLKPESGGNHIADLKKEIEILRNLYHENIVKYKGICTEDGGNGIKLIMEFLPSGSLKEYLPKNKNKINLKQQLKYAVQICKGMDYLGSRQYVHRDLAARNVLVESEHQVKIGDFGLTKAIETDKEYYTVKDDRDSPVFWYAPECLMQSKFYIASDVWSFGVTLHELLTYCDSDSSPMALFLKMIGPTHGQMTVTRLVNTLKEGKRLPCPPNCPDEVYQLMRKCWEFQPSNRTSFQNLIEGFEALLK
Chain of Serine/threonine-protein kinase 26 (Homo sapiens) (Q9P289 2-416 limits assumed): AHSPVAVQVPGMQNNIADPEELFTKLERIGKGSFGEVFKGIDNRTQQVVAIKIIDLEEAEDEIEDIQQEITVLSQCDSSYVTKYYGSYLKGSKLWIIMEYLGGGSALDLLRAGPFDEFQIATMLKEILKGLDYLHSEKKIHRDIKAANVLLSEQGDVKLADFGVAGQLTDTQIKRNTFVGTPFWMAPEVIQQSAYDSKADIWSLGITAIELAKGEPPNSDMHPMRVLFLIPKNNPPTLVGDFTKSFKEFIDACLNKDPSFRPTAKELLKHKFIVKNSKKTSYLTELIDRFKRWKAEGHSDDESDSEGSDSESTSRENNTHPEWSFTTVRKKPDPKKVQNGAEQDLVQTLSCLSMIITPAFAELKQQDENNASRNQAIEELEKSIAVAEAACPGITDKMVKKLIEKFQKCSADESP
Chain of Muscle, skeletal receptor tyrosine-protein kinase (Homo sapiens) (O15146 whole entry): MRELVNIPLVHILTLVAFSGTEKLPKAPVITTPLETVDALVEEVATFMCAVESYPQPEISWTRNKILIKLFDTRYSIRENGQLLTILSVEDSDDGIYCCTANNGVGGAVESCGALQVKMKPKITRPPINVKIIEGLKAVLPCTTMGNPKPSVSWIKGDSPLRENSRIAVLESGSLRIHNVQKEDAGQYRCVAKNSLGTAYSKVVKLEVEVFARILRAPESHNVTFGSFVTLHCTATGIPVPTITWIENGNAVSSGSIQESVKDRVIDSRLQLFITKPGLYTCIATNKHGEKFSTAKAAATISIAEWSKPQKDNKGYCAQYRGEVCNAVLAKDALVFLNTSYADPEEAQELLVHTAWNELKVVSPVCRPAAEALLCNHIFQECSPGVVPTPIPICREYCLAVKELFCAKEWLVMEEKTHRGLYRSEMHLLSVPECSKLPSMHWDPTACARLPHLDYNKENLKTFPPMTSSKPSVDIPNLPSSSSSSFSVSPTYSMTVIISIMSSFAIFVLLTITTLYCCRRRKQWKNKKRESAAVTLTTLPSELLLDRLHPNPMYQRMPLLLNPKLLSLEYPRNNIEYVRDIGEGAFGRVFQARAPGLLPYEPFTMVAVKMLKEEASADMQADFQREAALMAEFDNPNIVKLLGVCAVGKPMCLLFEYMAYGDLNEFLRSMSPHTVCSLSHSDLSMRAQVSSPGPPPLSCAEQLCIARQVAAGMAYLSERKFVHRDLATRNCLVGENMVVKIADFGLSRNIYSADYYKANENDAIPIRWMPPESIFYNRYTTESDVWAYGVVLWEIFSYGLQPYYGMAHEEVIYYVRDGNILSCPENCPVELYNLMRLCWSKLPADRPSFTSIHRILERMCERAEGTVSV
Chain of Casein kinase II subunit alpha (Homo sapiens) (P68400 whole entry, looked up): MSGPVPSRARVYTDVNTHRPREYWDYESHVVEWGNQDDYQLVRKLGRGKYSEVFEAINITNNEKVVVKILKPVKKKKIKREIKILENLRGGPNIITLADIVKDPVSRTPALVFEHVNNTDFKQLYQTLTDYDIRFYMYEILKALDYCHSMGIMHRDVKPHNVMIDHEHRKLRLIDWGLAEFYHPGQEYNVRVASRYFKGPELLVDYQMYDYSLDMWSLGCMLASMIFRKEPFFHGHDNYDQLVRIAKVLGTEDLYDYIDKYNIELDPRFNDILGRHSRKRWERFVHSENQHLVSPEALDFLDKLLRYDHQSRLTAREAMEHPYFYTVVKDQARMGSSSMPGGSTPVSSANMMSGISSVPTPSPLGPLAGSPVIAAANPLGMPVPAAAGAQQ
Chain of Tyrosine-protein kinase receptor UFO (Homo sapiens) (P30530 whole entry): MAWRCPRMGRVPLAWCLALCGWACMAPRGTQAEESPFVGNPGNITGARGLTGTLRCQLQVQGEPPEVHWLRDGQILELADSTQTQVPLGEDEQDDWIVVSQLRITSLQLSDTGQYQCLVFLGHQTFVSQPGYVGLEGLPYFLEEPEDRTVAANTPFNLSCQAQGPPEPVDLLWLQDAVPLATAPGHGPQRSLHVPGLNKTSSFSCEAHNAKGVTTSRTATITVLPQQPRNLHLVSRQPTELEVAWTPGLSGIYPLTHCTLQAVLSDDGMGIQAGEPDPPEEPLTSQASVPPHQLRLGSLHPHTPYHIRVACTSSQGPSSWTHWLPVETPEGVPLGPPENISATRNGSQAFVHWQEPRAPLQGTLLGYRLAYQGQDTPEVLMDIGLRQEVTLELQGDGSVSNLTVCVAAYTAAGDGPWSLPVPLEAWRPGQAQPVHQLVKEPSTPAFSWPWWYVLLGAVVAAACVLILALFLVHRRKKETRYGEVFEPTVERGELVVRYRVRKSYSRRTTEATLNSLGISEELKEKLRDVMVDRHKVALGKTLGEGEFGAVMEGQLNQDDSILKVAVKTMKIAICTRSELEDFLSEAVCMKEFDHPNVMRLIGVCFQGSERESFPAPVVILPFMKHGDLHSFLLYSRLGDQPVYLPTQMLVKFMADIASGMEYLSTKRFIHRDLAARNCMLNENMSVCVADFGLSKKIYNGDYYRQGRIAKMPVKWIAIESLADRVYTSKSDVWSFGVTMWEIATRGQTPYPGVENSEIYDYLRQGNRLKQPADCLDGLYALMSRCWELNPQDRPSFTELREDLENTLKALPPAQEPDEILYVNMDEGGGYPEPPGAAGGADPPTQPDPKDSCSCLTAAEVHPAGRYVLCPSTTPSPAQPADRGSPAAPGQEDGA
Chain of Tyrosine-protein kinase HCK (Homo sapiens) (P08631 2-526 limits assumed): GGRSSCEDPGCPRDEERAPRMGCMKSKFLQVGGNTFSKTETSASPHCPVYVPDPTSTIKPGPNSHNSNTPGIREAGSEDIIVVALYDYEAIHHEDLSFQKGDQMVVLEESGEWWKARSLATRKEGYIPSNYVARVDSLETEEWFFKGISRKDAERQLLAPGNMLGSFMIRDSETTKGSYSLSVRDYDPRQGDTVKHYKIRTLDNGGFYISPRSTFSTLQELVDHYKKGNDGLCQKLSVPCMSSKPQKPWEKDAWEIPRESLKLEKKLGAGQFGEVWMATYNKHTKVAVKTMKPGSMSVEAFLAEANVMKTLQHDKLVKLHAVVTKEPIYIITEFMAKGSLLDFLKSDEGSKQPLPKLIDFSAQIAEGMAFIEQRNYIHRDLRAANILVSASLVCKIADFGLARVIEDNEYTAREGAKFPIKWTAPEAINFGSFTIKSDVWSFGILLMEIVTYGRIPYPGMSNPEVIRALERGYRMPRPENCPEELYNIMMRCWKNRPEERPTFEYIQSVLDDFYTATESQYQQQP
Chain of Protein kinase C theta type (Homo sapiens) (Q04759 whole entry, looked up): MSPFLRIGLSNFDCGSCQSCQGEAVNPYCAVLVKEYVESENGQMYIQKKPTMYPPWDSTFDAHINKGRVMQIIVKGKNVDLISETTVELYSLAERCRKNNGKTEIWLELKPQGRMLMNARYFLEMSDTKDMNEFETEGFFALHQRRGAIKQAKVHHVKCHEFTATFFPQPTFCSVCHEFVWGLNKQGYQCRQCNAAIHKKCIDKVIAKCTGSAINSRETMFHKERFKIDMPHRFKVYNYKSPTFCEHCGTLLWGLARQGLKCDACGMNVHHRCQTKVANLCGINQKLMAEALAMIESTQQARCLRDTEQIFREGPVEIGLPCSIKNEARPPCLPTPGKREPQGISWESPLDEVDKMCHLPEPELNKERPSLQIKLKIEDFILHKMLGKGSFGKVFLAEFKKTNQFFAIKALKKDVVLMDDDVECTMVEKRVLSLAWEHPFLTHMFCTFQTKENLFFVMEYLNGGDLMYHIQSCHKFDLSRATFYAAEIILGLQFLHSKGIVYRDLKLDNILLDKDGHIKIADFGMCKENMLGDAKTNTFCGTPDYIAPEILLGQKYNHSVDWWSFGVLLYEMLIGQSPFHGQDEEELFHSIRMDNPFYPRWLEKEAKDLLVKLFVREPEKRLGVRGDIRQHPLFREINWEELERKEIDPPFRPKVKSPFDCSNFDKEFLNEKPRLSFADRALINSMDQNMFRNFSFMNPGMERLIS

## COc1cc(Nc2ncc(Cl)c(-c3cccc(CC#N)c3)n2)ccc1N1CCN(C)CC1
[1]
  inhibition: 50%
[2]
  inhibition: 50%
[3]
  inhibition: > 80%
[4]
  inhibition: > 80%
[5]
  inhibition: 50%
[6]
  IC50: 350 nM
Caco-2
  Ratio: 0.96
[7]
  inhibition: > 80%
[8]
  inhibition: 50%
[9]
  inhibition: > 80%
[10]
  inhibition: > 80%
[11]
  inhibition: > 95%
[12]
  inhibition: 50%
[13]
  inhibition: > 50%
[14]
  inhibition: > 80%
[15]
  inhibition: > 80%
[16]
  inhibition: > 80%
[17]
  inhibition: > 80%
[18]
  inhibition: > 95%
[19]
  inhibition: > 80%
[20]
  inhibition: > 80%
[21]
  Papp A→B: 8 ×10⁻⁶ cm/s
[22]
  inhibition: 50%
[23]
  inhibition: > 80%
[24]
  inhibition: > 95%
[25]
  inhibition: > 80%
[26]
  inhibition: > 80%
[27]
  inhibition: 50%
[28]
  inhibition: > 80%
[29]
  inhibition: > 95%
[30]
  inhibition: > 50%
[31]
  inhibition: > 80%
[32]
  inhibition: > 95%
[33]
  inhibition: > 95%
[34]
  inhibition: 50%
[35]
  inhibition: 50%
[36]
  inhibition: > 95%
[37]
  inhibition: > 50%
[38]
  inhibition: > 80%
[39]
  inhibition: 50%
[40]
  inhibition: > 80%
[41]
  inhibition: > 80%
[42]
  inhibition: > 80%
[43]
  inhibition: > 80%
